Columns and labels:
[1] = molecular target: Aldo-keto reductase family 1 member B1 (Rattus norvegicus, UniProt P07943); assay: biochemical; type: tissue-based, Lens of camera-type eye;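 note: inhibition of aldose reductase enzyme activity, measured with DL-glyceraldehyde as the substrate; in other assays of this panel Not Active means under 50% inhibition at 10 µM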
[2] = DRUGMATRIX: Calcium Channel Type L, Dihydropyridine radioligand binding (ligand: [3H] Nitrendipine); type: cell membranes, Rattus norvegicus, Wistar, Cerebral cortex, Membrane; conditions: Not Active = under 50% inhibition at 10 µM
[3] = molecular target: C-C chemokine receptor type 2 (Homo sapiens, UniProt P41597); type: cell membranes, CHO-K1, Membrane; conditions: cho-k1; note: in other assays of this panel Not Active means under 50% inhibition at 10 µM
Histamine H2 receptor = Histamine H2 receptor (Homo sapiens, UniProt P25021); type: cell membranes, CHO-K1, Membrane; note: in other assays of this panel Not Active means under 50% inhibition at 10 µM
Melanocortin receptor 4 = Melanocortin receptor 4 (Homo sapiens, UniProt P32245); type: cell membranes, Membrane; conditions: hek293; note: in other assays of this panel Not Active means under 50% inhibition at 10 µM
[4] = DRUGMATRIX: Phorbol Ester radioligand binding (ligand: [3H] PDBu); type: cell membranes, Mus musculus, ICR, Brain, Membrane; conditions: Not Active = under 50% inhibition at 10 µM

Chain of Melanocortin receptor 4 (P32245 whole entry): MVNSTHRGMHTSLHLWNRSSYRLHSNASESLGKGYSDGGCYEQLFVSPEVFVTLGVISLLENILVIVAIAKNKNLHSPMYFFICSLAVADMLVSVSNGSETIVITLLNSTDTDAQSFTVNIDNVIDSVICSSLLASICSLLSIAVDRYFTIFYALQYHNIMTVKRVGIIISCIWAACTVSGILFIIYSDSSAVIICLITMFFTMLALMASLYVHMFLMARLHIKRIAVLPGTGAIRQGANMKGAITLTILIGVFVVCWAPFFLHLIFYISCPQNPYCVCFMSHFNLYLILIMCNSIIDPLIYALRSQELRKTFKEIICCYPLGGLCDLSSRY
Chain of C-C chemokine receptor type 2 (P41597 whole entry): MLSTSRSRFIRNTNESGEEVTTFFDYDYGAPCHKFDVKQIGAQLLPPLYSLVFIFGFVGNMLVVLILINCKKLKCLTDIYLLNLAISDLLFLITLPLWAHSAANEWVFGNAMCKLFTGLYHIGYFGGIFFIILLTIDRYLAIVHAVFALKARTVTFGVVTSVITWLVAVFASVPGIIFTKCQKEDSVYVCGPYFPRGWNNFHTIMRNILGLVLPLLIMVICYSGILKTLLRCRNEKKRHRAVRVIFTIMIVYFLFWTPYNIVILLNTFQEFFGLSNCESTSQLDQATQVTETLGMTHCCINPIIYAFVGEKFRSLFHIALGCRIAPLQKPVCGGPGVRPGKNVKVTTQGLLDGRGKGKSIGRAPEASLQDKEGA
Chain of Histamine H2 receptor (P25021 whole entry): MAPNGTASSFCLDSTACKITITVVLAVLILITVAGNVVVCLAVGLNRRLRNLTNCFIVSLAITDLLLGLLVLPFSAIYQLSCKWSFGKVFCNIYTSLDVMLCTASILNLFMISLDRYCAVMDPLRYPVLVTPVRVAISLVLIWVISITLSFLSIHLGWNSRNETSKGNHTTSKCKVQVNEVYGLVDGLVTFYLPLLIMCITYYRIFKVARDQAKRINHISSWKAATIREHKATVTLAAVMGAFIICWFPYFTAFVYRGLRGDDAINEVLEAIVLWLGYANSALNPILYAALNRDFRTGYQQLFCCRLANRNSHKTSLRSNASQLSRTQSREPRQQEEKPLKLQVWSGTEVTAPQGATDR

With `CC[C@@]1(O)C(=O)OCc2c1cc1n(c2=O)Cc2cc3c(CN(C)C)c(O)ccc3nc2-1` [TOPOTECAN] the IC50 [1] was “Not Active”, the IC50 [2] was “Not Active” and the Ki [2] was “Not Active”. The IC50 [3] was “Not Active”, the IC50 (Histamine H2 receptor; cho-k1) was “Not Active” and the IC50 (Melanocortin receptor 4) was “Not Active”. For the same compound, the IC50 [4] was “Not Active” and the Ki [4] was “Not Active”.
In the case of `C#C[C@]1(O)CC[C@H]2[C@@H]3[C@H](C)CC4=C(CCC(=O)C4)[C@H]3CC[C@@]21C` [TIBOLONE], the IC50 [1] is reported as “Not Active”, the IC50 [2] is reported as “Not Active” and the Ki [2] is reported as “Not Active”. For the same compound, the IC50 [3] was “Not Active”, the IC50 (Histamine H2 receptor; cho-k1) was “Not Active” and the IC50 (Melanocortin receptor 4) was “Not Active”. The IC50 [4] was “Not Active” and the Ki [4] was “Not Active”.
For `Oc1ccc(/C=C/c2cc(O)cc(O)c2)cc1` [RESVERATROL], the IC50 [1] was “Not Active”, the IC50 [2] was “Not Active” and the Ki [2] was “Not Active”. For the same compound, the IC50 [3] was “Not Active”, the IC50 (Histamine H2 receptor; cho-k1) was “Not Active” and the IC50 (Melanocortin receptor 4) was “Not Active”. For the same compound, the IC50 [4] was “Not Active” and the Ki [4] was “Not Active”.
For `Cc1ccc(Cl)c(Nc2ccccc2C(=O)O)c1Cl` [MECLOFENAMIC ACID], the IC50 [1] was “Not Active”, the IC50 [2] was “Not Active” and the Ki [2] was “Not Active”. The IC50 [3] was “Not Active”, the IC50 (Histamine H2 receptor; cho-k1) was “Not Active” and the IC50 (Melanocortin receptor 4) was “Not Active”. The IC50 [4] was “Not Active” and the Ki [4] was “Not Active”.
For `Cc1ccnc(NS(=O)(=O)c2ccc(N)cc2)n1` [SULFAMERAZINE], the IC50 [1] was “Not Active”, the IC50 [2] was “Not Active” and the Ki [2] was “Not Active”. For the same compound, the IC50 [3] was “Not Active”, the IC50 (Histamine H2 receptor; cho-k1) was “Not Active” and the IC50 (Melanocortin receptor 4) was “Not Active”. For the same compound, the IC50 [4] was “Not Active” and the Ki [4] was “Not Active”.
For `CCOc1cc(N)c(Cl)cc1C(=O)NCC1CN(Cc2ccc(F)cc2)CCO1` (stereo not drawn) [MOSAPRIDE], the IC50 [1] was “Not Active”, the IC50 [2] was “Not Active” and the Ki [2] was “Not Active”. The IC50 [3] was “Not Active”, the IC50 (Histamine H2 receptor; cho-k1) was “Not Active” and the IC50 (Melanocortin receptor 4) was “Not Active”. The IC50 [4] was “Not Active” and the Ki [4] was “Not Active”.
In the case of `C[C@]12CCC(=O)C[C@@H]1CC[C@@H]1[C@@H]2CC[C@]2(C)[C@@H](O)CC[C@@H]12` [STANOLONE], the IC50 [1] is reported as “Not Active”, the IC50 [2] is reported as “Not Active” and the Ki [2] is reported as “Not Active”. The IC50 [3] was “Not Active”, the IC50 (Histamine H2 receptor; cho-k1) was “Not Active” and the IC50 (Melanocortin receptor 4) was “Not Active”. For the same compound, the IC50 [4] was “Not Active” and the Ki [4] was “Not Active”.
With `C[N+]1(C)[C@@H]2C[C@@H](OC(=O)[C@H](CO)c3ccccc3)C[C@H]1[C@@H]1O[C@@H]12.[Br-]` [METHSCOPOLAMINE BROMIDE] the IC50 [1] was “Not Active”, the IC50 [2] was “Not Active” and the Ki [2] was “Not Active”. For the same compound, the IC50 [3] was “Not Active”, the IC50 (Histamine H2 receptor; cho-k1) was “Not Active” and the IC50 (Melanocortin receptor 4) was “Not Active”. The IC50 [4] was “Not Active” and the Ki [4] was “Not Active”.
For `OC[C@@H](O)[C@@H](O)[C@H](O)[C@H](O)CO` [MANNITOL], the IC50 [1] was “Not Active”, the IC50 [2] was “Not Active” and the Ki [2] was “Not Active”. For the same compound, the IC50 [3] was “Not Active”, the IC50 (Histamine H2 receptor; cho-k1) was “Not Active” and the IC50 (Melanocortin receptor 4) was “Not Active”. For the same compound, the IC50 [4] was “Not Active” and the Ki [4] was “Not Active”.
With `O=C(O)c1cc(/N=N/c2ccc(S(=O)(=O)Nc3ccccn3)cc2)ccc1O` [SULFASALAZINE] the IC50 ([1]; read-out: IC50) was 17000 nM, the IC50 [2] was “Not Active” and the Ki [2] was “Not Active”. For the same compound, the IC50 [3] was “Not Active”, the IC50 (Histamine H2 receptor; cho-k1) was “Not Active” and the IC50 (Melanocortin receptor 4) was “Not Active”. For the same compound, the IC50 [4] was “Not Active” and the Ki [4] was “Not Active”.
In the case of `CC1=C(/C=C/C(C)=C/C=C/C(C)=C/C(=O)O)C(C)(C)CCC1` [TRETINOIN], the IC50 [1] is reported as “Not Active”, the IC50 [2] is reported as “Not Active” and the Ki [2] is reported as “Not Active”. For the same compound, the IC50 [3] was “Not Active”, the IC50 (Histamine H2 receptor; cho-k1) was “Not Active” and the IC50 (Melanocortin receptor 4) was “Not Active”. For the same compound, the IC50 [4] was “Not Active” and the Ki [4] was “Not Active”.
In the case of `CC[C@H](C)C(=O)O[C@H]1CCC=C2C=C[C@H](C)[C@H](CC[C@@H]3C[C@@H](O)CC(=O)O3)[C@H]21` [MEVASTATIN], the IC50 [1] is reported as “Not Active”, the IC50 [2] is reported as “Not Active” and the Ki [2] is reported as “Not Active”. For the same compound, the IC50 [3] was “Not Active”, the IC50 (Histamine H2 receptor; cho-k1) was “Not Active” and the IC50 (Melanocortin receptor 4) was “Not Active”. For the same compound, the IC50 [4] was “Not Active” and the Ki [4] was “Not Active”.
With `Cc1cc2c(s1)Nc1ccccc1N=C2N1CCN(C)CC1` [OLANZAPINE] the IC50 [1] was “Not Active”, the IC50 [3] was “Not Active” and the IC50 (Histamine H2 receptor; cho-k1) was “Not Active”. The IC50 (Melanocortin receptor 4) was “Not Active”.
With `CNCCCC12CCC(c3ccccc31)c1ccccc12` [MAPROTILINE] the IC50 [1] was “Not Active”, the IC50 [3] was “Not Active” and the IC50 (Histamine H2 receptor; read-out: IC50) was 400 nM. The Ki (Histamine H2 receptor; read-out: Ki) was 393 nM and the IC50 (Melanocortin receptor 4) was “Not Active”.
With `CN(C)CCC=C1c2ccccc2COc2ccccc21` [DOXEPIN] the IC50 [1] was “Not Active”, the IC50 [3] was “Not Active” and the IC50 (Melanocortin receptor 4) was “Not Active”.

From ChEMBL document CHEMBL1909046, “DrugMatrix in vitro pharmacology data”
